≈ marks a conversion by molar mass, not a printed value. Calls of active or inactive are those of the source. The rule behind the calls is not given here.
Key:
[1] = test system: Mycobacterium tuberculosis variant bovis; test: Antimycobacterial activity against Mycobacterium bovis BCG ATCC 35734 assessed as ATP leakage by measuring extracellular ATP at 2 times MIC measured at 24 hrs post dose by luciferase reporter gene assay; assay type: functional, Mycobacterium tuberculosis variant bovis BCG
[2] = test system: Mycobacterium tuberculosis variant bovis; test: Antimycobacterial activity against Mycobacterium bovis BCG ATCC 35734 assessed as ATP leakage by measuring extracellular ATP at 0.5 times MIC measured at 24 hrs post dose by luciferase reporter gene assay; assay type: functional, Mycobacterium tuberculosis variant bovis BCG
[3] = test system: Mycobacterium tuberculosis variant bovis; test: Antimycobacterial activity against Mycobacterium bovis BCG ATCC 35734 assessed as ATP leakage by measuring intracellular ATP at 0.5 times MIC measured at 9 hrs post dose by luciferase reporter gene assay; assay type: functional, Mycobacterium tuberculosis variant bovis BCG
[4] = test system: Mycobacterium tuberculosis variant bovis; test: Antimycobacterial activity against Mycobacterium bovis BCG ATCC 35734 assessed as ATP leakage by measuring extracellular ATP at 4 times MIC measured at 9 hrs post dose by luciferase reporter gene assay; assay type: functional, Mycobacterium tuberculosis variant bovis BCG
[5] = test system: Mycobacterium tuberculosis variant bovis; test: Antimycobacterial activity against Mycobacterium bovis BCG ATCC 35734 assessed as ATP leakage by measuring extracellular ATP at 0.5 times MIC measured immediatey after addition of compounds by luciferase reporter gene assay; assay type: functional, Mycobacterium tuberculosis variant bovis BCG
[6] = test system: Mycobacterium tuberculosis variant bovis; test: Antimycobacterial activity against Mycobacterium bovis BCG ATCC 35734 assessed as ATP leakage by measuring intracellular ATP at 1 MIC measured immediatey after addition of compounds by luciferase reporter gene assay; assay type: functional, Mycobacterium tuberculosis variant bovis BCG
[7] = test system: Mycobacterium tuberculosis variant bovis; test: Antimycobacterial activity against Mycobacterium bovis BCG ATCC 35734 assessed as ATP leakage by measuring extracellular ATP at 4 times MIC measured immediatey after addition of compounds by luciferase reporter gene assay; assay type: functional, Mycobacterium tuberculosis variant bovis BCG
[8] = test system: Mycobacterium tuberculosis variant bovis; test: Antimycobacterial activity against Mycobacterium bovis BCG ATCC 35734 assessed as ATP leakage by measuring extracellular ATP at 2 times MIC measured immediatey after addition of compounds by luciferase reporter gene assay; assay type: functional, Mycobacterium tuberculosis variant bovis BCG
[9] = test system: Mycobacterium tuberculosis variant bovis; test: Antimycobacterial activity against Mycobacterium bovis BCG ATCC 35734 assessed as ATP leakage by measuring extracellular ATP at 1 MIC measured immediatey after addition of compounds by luciferase reporter gene assay; assay type: functional, Mycobacterium tuberculosis variant bovis BCG
[10] = test system: Mycobacterium tuberculosis variant bovis; test: Bactericidal activity against Mycobacterium bovis BCG ATCC 35734 assessed as log reduction in bacterial colonies at 4 times MIC measured after 3 hrs by time-kill assay; assay type: functional, Mycobacterium tuberculosis variant bovis BCG
[11] = test system: Mycobacterium tuberculosis variant bovis; test: Bactericidal activity against Mycobacterium bovis BCG ATCC 35734 measured after 14 days by time-kill assay; assay type: functional
[12] = test system: Mycobacterium tuberculosis variant bovis; test: Antimycobacterial activity against Mycobacterium bovis BCG ATCC 35734 after 5 days by broth dilution assay; assay type: functional; conditions: ATCC 35734, 120 h
[13] = test system: Mycobacterium tuberculosis variant bovis; test: Antimycobacterial activity against Mycobacterium bovis BCG ATCC 35734 assessed as ATP leakage by measuring intracellular ATP at 4 times MIC measured at 6 hrs post dose by luciferase reporter gene assay; assay type: functional, Mycobacterium tuberculosis variant bovis BCG
[14] = test system: Mycobacterium tuberculosis variant bovis; test: Antimycobacterial activity against Mycobacterium bovis BCG ATCC 35734 assessed as ATP leakage by measuring intracellular ATP at 2 times MIC measured at 6 hrs post dose by luciferase reporter gene assay; assay type: functional, Mycobacterium tuberculosis variant bovis BCG
[15] = test system: Mycobacterium tuberculosis variant bovis; test: Antimycobacterial activity against Mycobacterium bovis BCG ATCC 35734 assessed as ATP leakage by measuring intracellular ATP at 4 times MIC measured at 3 hrs post dose by luciferase reporter gene assay; assay type: functional, Mycobacterium tuberculosis variant bovis BCG
[16] = test system: Mycobacterium tuberculosis variant bovis; test: Antimycobacterial activity against Mycobacterium bovis BCG ATCC 35734 assessed as ATP leakage by measuring extracellular ATP at 2 times MIC measured at 3 hrs post dose by luciferase reporter gene assay; assay type: functional, Mycobacterium tuberculosis variant bovis BCG
[17] = test system: Mycobacterium tuberculosis variant bovis; test: Antimycobacterial activity against Mycobacterium bovis BCG ATCC 35734 assessed as ATP leakage by measuring extracellular ATP at 0.5 times MIC measured at 3 hrs post dose by luciferase reporter gene assay; assay type: functional, Mycobacterium tuberculosis variant bovis BCG
[18] = test system: Mycobacterium tuberculosis variant bovis; test: Antimycobacterial activity against Mycobacterium bovis BCG ATCC 35734 assessed as ATP leakage by measuring intracellular ATP at 1 MIC measured at 1 hr post dose by luciferase reporter gene assay; assay type: functional, Mycobacterium tuberculosis variant bovis BCG
[19] = test system: Mycobacterium tuberculosis variant bovis; test: Antimycobacterial activity against Mycobacterium bovis BCG ATCC 35734 assessed as ATP leakage by measuring extracellular ATP at 1 MIC measured at 1 hr post dose by luciferase reporter gene assay; assay type: functional, Mycobacterium tuberculosis variant bovis BCG
[20] = test system: Mycobacterium tuberculosis variant bovis; test: Antimycobacterial activity against Mycobacterium bovis BCG ATCC 35734 assessed as ATP leakage by measuring extracellular ATP at 0.5 times MIC measured at 1 hr post dose by luciferase reporter gene assay; assay type: functional, Mycobacterium tuberculosis variant bovis BCG
[21] = test system: Mycobacterium tuberculosis variant bovis; test: Induction of membrane integrity impairment in Mycobacterium bovis BCG ATCC 35734 assessed as pH shift at 30 uM after 3 hrs by dye based fluorescence spectroscopic method relative to control; assay type: functional, Mycobacterium tuberculosis variant bovis BCG
[22] = test system: Mycobacterium tuberculosis variant bovis; test: Bactericidal activity against Mycobacterium bovis BCG ATCC 35734 assessed as log reduction in bacterial colonies measured up to 24 hrs by time-kill assay; assay type: functional
[23] = test system: Mycobacterium tuberculosis variant bovis; test: Bactericidal activity against Mycobacterium bovis BCG ATCC 35734 assessed as log reduction in bacterial colonies at 4 times MIC measured after 24 hrs by time-kill assay; assay type: functional, Mycobacterium tuberculosis variant bovis BCG
[24] = test system: Mycobacterium tuberculosis variant bovis; test: Induction of membrane disruption in Mycobacterium bovis BCG ATCC 35734 at 60 uM up to 3 hrs by Sytox green uptake assay; assay type: functional

| Structure (SMILES) | Activity [1] | Activity [2] | Activity [3] | Activity [4] | Activity [5] | Activity [6] | Activity [7] | Activity [8] | Activity [9] | MIC90 [12] | Activity [13] | Activity [14] | Activity [15] | Activity [16] | Activity [17] | Activity [18] | Activity [19] | Activity [20] | Activity [21] | further results |
| --- | --- | --- | --- | --- | --- | --- | --- | --- | --- | --- | --- | --- | --- | --- | --- | --- | --- | --- | --- | --- |
| CCCN(CCC)CCCCOc1cc2oc3cc(OCCCCN(CCC)CCC)c(OC)c(CC=C(C)C)c3c(=O)c2c(O)c1CC=C(C)C | 70.5% | 15.6% | 74.6% | 84% | 0% | 97.5% | 9.4% | 2.2% | 2.5% | 3.2 µM (≈ 2.31 µg/mL) | 30.3% | 36.8% | 57.9% | 44.2% | 20.1% | 86.8% | 13.2% | 25.1% | 76.6% | Activity [10]: 1.5; Activity [11]: Dose-dependent effect; Activity [22]: Dose-dependent effect |
| COc1c(OCCCCN2CCOCC2)cc2oc3cc(OCCCCN4CCOCC4)c(CC=C(C)C)c(O)c3c(=O)c2c1CC=C(C)C | 50.2% | 4.8% | 92.7% | 58.4% | 0% | 95.3% | 14.3% | 8.1% | 4.7% | 30 µM (≈ 20.8 µg/mL) | 37.2% | 72.6% | 66.6% | 20% | 8.6% | 88.5% | 11.5% | 20.2% | – | Activity [23]: 3.3 |
| CCN(CC)CCCCOc1cc2oc3cc(OCCCCN(CC)CC)c(OC)c(CC=C(C)C)c3c(=O)c2c(O)c1CC=C(C)C | 94.1% | 34.7% | 52.8% | 94.5% | 0% | 98% | 10.5% | 3.6% | 2% | 6.4 µM (≈ 4.26 µg/mL) | 6.7% | 8.1% | 10.4% | 83.6% | 27.4% | 75.1% | 24.9% | 20.8% | 20% | Activity [24]: Active |

— ChEMBL document CHEMBL3872220, “Amphiphilic xanthones as a potent chemical entity of anti-mycobacterial agents with membrane-targeting properties” (Eur J Med Chem, 2016)
